Assay results taken from US20090257975A1, “Solid and Semi-Solid Polymeric Ionic Conjugates” (Pfizer Inc, priority 2002, published 2009).
≈ marks a conversion by molar mass, not a printed value. Structures can show the parent of a compound that is named as a salt.

Assay: Solubility determination of ziprasidone in pH 7.4 PBS (shaken vials, HPLC)
Type: physicochemical
Conditions: concentration of ziprasidone in solution
Protocol: The following samples were evaluated for solubility: • 1. Ziprasidone-polymer ionic conjugate FIVE (40% ziprasidone, 60% polymer composed of Lactide/Glycolide/Malic acid at molar ratios of 4:1:0.65M) • 2. Ziprasidone-polymer ionic conjugate in gel former (Solution of Conjugate FIVE in a typical gel former, The conjugate was dissolved in a mixture (1:1 by weight) with a mixture of two gel formers made individually of PEG-400 grafted with Trimethylene carbonate/Caprolactone/Glycolide and PEG-400 grafted with Lactide/Glycolide • 3. Ziprasidone mesylate salt • 4. Ziprasidone free base
Excess of each of the above sample were placed in a screw-cap vial with 2 ml of pH 7.4, PBS (Dulbecco's Phosphate-Buffered Saline) solution, and the vials were shaken continuously for 7 days. Ziprasidone free base and its mesylate salt were used as controls. The concentration of ziprasidone in solution was determined at 15 minutes, 6 hours, 24 hours, and 7 days. The HPLC samples were prepared by filtering each suspension through a 0.22-μm syringe filter without any additional dilutions

Structure (SMILES)	solubility at 6 h (Dulbecco's phosphate-buffered saline (PBS), aqueous buffer, thermodynamic from solid, time point 6 hours)	Solubility (time point 15 minutes)	Solubility (time point 7 days)	solubility at 15 min (Dulbecco's phosphate-buffered saline (PBS), aqueous buffer, thermodynamic from solid, time point 15 minutes)	Solubility (time point 6 hours)
O=C1Cc2cc(CCN3CCN(c4nsc5ccccc45)CC3)c(Cl)cc2N1 [Ziprasidone Free Base, 5-[2-[4-(1,2-benzisothiazol-3-yl)-1-piperazinyl]ethyl]-6-chloro-1,3-dihydro-2H-indol-2-one]	0.2 µg/mL (≈ 0.484 µM)	Below	Below		
O=C1Cc2cc(CCN3CCN(c4nsc5ccccc45)CC3)c(Cl)cc2N1 [Ziprasidone Mesylate]			1.3 µg/mL	1.5 µg/mL	1.1 µg/mL
